Measured values: PMC7206119, “RIP1 inhibition blocks inflammatory diseases but not tumor growth or metastases” (Cell Death and Differentiation, 2019)

What was measured:
Assay in all cases: biochemical
Design in all cases: DiscoverX kinase panel, active-site competition binding (KINOMEscan type), percent of control at one concentration
Settings in all cases: competition binding, percent of control
CLK1 = CLK1 (Homo sapiens, UniProt P49759)
PHKG2 = PHKG2 (Homo sapiens, UniProt P15735)
FLT3-autoinhibited = FLT3-autoinhibited (Homo sapiens, UniProt P36888)
TXK = TXK (Homo sapiens, UniProt P42681)
MEK3 = molecular target: T1, MEK3 (Homo sapiens, UniProt P46734)
T1 construct: gene MAP2K3

TAOK2 = TAOK2 (Homo sapiens, UniProt Q9UL54)
p38-beta = molecular target: T2, p38-beta (Homo sapiens, UniProt Q15759)
T2 construct: gene MAPK11

TIE1 = TIE1 (Homo sapiens, UniProt P35590)
ERK8 = molecular target: T3, ERK8 (Homo sapiens, UniProt Q8TD08)
T3 construct: gene MAPK15

SRC = SRC (Homo sapiens, UniProt P12931)
RIOK1 = RIOK1 (Homo sapiens, UniProt Q9BRS2)
JNK3 = molecular target: T4, JNK3 (Homo sapiens, UniProt P53779)
T4 construct: gene MAPK10

WNK3 = WNK3 (Homo sapiens, UniProt Q9BYP7)
CDK4-cyclinD1 = molecular target: T5, CDK4-cyclinD1 (Homo sapiens, UniProt P11802)
T5 construct: cyclinD1

SIK = molecular target: T6, SIK (Homo sapiens, UniProt P57059)
T6 construct: gene SIK1

MINK = molecular target: T7, MINK (Homo sapiens, UniProt Q8N4C8)
T7 construct: gene MINK1

LYN = LYN (Homo sapiens, UniProt P07948)
PRP4 = molecular target: T8, PRP4 (Homo sapiens, UniProt Q13523)
T8 construct: gene PRPF4B

S6K1 = molecular target: T9, S6K1 (Homo sapiens, UniProt P23443)
T9 construct: gene RPS6KB1

CAMK1 = CAMK1 (Homo sapiens, UniProt Q14012)
MST4 = molecular target: T10, MST4 (Homo sapiens, UniProt Q9P289)
T10 construct: gene STK26

PIK3CA = PIK3CA (Homo sapiens, UniProt P42336)

WNK3, sequence (Q9BYP7 whole entry): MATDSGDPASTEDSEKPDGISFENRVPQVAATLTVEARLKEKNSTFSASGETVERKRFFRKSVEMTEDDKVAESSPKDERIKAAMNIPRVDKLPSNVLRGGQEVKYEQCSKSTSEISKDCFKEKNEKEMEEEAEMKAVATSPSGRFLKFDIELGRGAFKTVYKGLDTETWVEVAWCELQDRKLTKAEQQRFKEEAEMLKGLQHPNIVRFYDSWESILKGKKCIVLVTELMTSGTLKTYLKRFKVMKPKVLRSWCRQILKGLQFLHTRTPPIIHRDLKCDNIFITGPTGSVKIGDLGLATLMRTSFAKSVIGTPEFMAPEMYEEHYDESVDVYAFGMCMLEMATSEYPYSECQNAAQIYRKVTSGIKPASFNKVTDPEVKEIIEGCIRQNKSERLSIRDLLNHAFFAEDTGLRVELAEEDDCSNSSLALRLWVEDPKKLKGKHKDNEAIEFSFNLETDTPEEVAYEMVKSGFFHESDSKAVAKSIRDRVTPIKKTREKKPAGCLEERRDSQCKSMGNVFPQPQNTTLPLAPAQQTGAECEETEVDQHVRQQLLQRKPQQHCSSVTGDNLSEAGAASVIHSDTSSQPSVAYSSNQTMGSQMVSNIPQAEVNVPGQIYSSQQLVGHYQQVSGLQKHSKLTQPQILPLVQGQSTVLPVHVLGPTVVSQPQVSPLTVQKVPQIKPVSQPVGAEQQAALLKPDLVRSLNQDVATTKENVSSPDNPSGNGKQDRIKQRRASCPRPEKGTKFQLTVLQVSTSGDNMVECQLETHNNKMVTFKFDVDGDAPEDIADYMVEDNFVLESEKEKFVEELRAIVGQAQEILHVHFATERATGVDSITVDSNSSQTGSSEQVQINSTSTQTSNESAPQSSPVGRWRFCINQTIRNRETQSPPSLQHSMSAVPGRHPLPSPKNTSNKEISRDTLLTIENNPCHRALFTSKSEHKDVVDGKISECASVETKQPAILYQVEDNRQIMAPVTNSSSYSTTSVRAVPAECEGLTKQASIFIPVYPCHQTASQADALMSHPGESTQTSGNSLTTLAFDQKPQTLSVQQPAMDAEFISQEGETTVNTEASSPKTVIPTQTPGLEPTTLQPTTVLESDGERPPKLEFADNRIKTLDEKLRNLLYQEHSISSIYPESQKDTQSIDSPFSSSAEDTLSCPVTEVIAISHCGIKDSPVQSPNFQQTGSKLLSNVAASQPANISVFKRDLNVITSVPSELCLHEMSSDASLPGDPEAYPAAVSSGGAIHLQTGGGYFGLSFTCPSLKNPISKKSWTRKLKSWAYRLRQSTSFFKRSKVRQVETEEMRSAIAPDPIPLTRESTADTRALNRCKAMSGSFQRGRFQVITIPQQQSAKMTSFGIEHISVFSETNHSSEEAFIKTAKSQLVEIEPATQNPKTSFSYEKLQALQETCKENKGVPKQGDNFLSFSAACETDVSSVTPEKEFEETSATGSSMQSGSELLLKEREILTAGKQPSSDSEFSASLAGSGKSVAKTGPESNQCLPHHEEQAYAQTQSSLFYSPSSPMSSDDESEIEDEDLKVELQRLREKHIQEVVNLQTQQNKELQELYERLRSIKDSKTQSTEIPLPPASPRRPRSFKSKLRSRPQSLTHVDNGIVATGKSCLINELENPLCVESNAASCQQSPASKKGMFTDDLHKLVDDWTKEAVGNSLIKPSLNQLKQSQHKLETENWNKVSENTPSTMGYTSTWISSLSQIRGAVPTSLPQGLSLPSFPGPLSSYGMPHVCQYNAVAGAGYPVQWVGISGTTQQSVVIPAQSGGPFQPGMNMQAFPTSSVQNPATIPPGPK
T8 sequence (Q13523 whole entry): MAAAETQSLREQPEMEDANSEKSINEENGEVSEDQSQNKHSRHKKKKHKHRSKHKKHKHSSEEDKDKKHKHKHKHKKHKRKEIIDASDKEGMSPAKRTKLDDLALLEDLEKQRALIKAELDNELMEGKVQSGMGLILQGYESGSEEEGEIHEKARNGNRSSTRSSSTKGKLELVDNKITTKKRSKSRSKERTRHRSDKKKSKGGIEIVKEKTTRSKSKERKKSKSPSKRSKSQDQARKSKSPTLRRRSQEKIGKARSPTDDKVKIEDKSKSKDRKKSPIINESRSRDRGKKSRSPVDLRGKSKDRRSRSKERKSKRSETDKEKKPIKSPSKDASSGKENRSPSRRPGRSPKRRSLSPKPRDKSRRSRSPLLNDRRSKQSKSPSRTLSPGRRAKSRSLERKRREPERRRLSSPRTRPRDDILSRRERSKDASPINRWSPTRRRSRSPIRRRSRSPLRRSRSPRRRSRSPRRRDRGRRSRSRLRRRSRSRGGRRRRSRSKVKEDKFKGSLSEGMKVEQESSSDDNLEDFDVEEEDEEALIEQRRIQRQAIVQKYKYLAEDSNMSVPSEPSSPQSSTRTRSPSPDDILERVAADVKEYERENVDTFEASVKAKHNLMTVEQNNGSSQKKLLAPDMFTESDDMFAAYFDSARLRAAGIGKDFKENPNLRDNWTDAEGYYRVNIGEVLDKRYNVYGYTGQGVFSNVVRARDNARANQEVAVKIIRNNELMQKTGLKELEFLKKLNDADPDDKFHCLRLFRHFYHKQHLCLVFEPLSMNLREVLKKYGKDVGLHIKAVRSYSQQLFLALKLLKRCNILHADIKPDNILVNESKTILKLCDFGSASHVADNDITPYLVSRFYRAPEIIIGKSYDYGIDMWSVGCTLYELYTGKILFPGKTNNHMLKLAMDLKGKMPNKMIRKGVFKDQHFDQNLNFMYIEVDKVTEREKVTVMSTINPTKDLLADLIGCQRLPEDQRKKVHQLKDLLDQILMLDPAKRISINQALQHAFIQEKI
TXK, sequence (P42681 whole entry): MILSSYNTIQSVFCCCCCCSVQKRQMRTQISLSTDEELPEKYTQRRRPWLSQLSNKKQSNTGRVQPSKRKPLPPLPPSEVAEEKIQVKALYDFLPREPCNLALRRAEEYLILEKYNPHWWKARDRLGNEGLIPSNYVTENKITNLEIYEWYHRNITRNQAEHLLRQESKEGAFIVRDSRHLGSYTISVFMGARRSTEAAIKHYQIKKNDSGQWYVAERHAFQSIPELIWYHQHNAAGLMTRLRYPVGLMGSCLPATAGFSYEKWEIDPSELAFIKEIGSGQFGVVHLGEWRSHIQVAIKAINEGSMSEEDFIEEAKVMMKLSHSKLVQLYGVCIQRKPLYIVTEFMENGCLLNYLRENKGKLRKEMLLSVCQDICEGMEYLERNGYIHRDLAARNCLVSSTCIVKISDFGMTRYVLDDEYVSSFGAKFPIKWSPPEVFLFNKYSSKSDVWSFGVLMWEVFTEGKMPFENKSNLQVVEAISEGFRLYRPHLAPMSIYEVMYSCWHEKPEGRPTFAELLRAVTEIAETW
T5 sequence (P11802 whole entry): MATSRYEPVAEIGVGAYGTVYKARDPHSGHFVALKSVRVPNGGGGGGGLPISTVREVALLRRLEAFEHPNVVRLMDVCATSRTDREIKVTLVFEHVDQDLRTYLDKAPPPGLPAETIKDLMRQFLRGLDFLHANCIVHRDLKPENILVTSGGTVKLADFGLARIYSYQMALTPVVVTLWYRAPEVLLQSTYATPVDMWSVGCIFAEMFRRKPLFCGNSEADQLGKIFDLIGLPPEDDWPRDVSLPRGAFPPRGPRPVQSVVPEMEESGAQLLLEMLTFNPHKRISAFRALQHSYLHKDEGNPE
T5 sequence (P24385 whole entry partner): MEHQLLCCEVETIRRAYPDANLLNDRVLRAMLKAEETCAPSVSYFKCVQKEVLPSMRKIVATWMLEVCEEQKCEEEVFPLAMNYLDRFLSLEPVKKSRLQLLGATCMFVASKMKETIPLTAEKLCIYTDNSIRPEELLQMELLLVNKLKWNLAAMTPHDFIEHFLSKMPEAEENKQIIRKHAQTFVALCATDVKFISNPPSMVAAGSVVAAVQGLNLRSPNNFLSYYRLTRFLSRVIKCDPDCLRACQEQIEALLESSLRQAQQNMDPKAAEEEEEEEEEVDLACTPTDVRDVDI
T1 sequence (P46734 whole entry): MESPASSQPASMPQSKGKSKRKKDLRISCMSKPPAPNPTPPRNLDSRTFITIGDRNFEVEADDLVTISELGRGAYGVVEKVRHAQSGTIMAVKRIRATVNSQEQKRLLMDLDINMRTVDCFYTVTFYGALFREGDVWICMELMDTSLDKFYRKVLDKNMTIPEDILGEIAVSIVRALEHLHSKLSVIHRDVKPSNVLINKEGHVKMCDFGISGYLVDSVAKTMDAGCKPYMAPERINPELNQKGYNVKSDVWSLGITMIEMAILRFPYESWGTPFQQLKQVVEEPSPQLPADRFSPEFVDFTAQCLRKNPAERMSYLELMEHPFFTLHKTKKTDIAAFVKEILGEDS
SRC, sequence (P12931 whole entry): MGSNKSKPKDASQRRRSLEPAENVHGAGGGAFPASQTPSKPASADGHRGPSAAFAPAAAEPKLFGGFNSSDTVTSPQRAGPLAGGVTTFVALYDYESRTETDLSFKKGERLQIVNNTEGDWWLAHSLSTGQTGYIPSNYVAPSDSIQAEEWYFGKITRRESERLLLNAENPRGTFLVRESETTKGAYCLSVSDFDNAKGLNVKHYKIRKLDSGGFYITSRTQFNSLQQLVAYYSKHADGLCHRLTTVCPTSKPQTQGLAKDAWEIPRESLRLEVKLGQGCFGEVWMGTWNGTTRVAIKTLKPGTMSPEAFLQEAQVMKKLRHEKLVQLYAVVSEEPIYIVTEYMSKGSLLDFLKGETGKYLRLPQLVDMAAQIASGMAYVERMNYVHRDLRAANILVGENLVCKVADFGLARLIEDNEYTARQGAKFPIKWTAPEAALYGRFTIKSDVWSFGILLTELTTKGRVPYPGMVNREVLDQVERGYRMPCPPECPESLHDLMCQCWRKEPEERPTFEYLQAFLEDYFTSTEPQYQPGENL

`COc1cc2c(cn1)N(C)C(=O)[C@@H](NC(=O)c1nc3n(n1)[C@H](c1ccccc1)CC3)CC2` [GNE684, (S)-N-((S)-7-methoxy-1-methyl-2-oxo-2,3,4,5-tetrahydro-1H-pyrido[3,4-b]azepin-3-yl)-5-phenyl-6,7-dihydro-5H-pyrrolo[1,2-b][1,2,4]triazole-2-carboxamide] was tested, and the remaining binding at 10 µM (CLK1) was 90%, the remaining binding at 10 µM (PHKG2) was 75% and the remaining binding at 10 µM (FLT3-autoinhibited) was 100%. The remaining binding at 10 µM (TXK) was 100%, the remaining binding at 10 µM (MEK3) was 87% and the remaining binding at 10 µM (TAOK2) was 92%. The remaining binding at 10 µM (p38-beta) was 97%, the remaining binding at 10 µM (TIE1) was 88% and the remaining binding at 10 µM (ERK8) was 85%. It also gave a remaining binding at 10 µM (SRC) of 72%, a remaining binding at 10 µM (RIOK1) of 84% and a remaining binding at 10 µM (JNK3) of 98%. The remaining binding at 10 µM (WNK3) was 100%, the remaining binding at 10 µM (CDK4-cyclinD1) was 87% and the remaining binding at 10 µM (SIK) was 100%. The remaining binding at 10 µM (MINK) was 100%, the remaining binding at 10 µM (LYN) was 94% and the remaining binding at 10 µM (PRP4) was 84%. It also gave a remaining binding at 10 µM (S6K1) of 88%, a remaining binding at 10 µM (CAMK1) of 91% and a remaining binding at 10 µM (MST4) of 100%. It also gave a remaining binding at 10 µM (PIK3CA) of 100%.
